Measurements published in patent US20200270310A1, “MAFG AS A POTENTIAL THERAPEUTIC TARGET TO RESTORE CHEMOSENSITIVITY IN PLATINUM-RESISTANT CANCER CELLS” (FUNDACÓIN PARA LA INVESTIGACIÓN BIOMÉDICA DEL HOSPITAL …, priority 2017, published 2020).
Where “and” joins values, the source holds several entries; their conditions need not be identical. Identical values can stand only once. Entries after “also recorded” stand apart in the source; their conditions may differ. Each block holds one molecule with its values, some of them ahead of it.

Tests used:
Type in all cases: cell-based, human
H23S cells [1] = experiment: ROS production after CDDP exposure, sensitive cells
Method: FIG. 2. Viability assays and Reactive Oxygenated Species detection after CDDP treatment in H23 cell lines. (A) Viability to CDDP in H23S (left) and H23R (right) at 24, 48 and 72 hours and 6 concentrations of CDDP measured by MTT assay. (B) Increment of ROS production in H23S (left) and H23R (right) after 24, 48 and 72 hours of CDDP treatment. $: 72h (vs Basal).
(§1) H23/A2780 cells were cultured in 96-well black plates at density of 10,000 cells/well. Cells were treated with 6 different doses of CDDP for 24, 48 and 72 h in RPMI containing 10% FBS. Then treatments were removed and cells were loaded with the fluorescent probe 2′,7′-dichlorodihydrofluorescein diacetate (H2DCFDA) (10 μM) for 45 minutes in RPMI medium (FBS free). Cells were washed twice with RPMI (10% FBS), and fluorescence was recorded in a Fluostar Optima, each hour, over 4 hours period. […] ROS production was calculated dividing the mean H2DCFDA fluorescence by the mean viability. […] All experiments included cells treated with RPMI alone (Basal), and one well without cells as fluorescence basal.
(§2) H23/A2780 cells were cultured in 96-well black plates at density of 10,000 cells/well. […] Cells were washed twice with RPMI (10% FBS), and fluorescence was recorded in a Fluostar Optima at 520 nm after excitation at 485 nm. […] ROS production was calculated dividing the mean H2DCFDA fluorescence by the mean viability. […]

A2780-R cells = experiment: Viability to CDDP, resistant index; details: versus parental A2780
Description: (§3) Fifteen human cancer cell lines were purchased from ATCC (Manassas, Va.) or ECACC (Sigma-Aldrich, Spain) and cultured as recommended. The CDDP-resistant variants A2780R and OVCAR3R were selected after a final exposure to […] cisplatin, respectively (Farma Ferrer, Spain), as previously described for H23R and H460R variants The additional 11 human cell lines, PC-3, LNCAP, H727, HT29, A549, BT474, LoVo, IMIM-PC-2, SKOV3, SW780 and IMR90, were used for further validations. For viability assays cells were treated with increasing doses of CDDP. The epigenetic reactivation drugs 5Aza-2deoxycytidine (5Aza-dC) and trichostatin A (TSA) (Sigma-Aldrich, Spain) were used at […] and at 300nM respectively.

H23R cells [2] = experiment: Viability to CDDP, resistant index; details: versus H23S
Description: as §3

H460R cells = experiment: Viability to CDDP, resistant index; details: versus parental H460
Description: as §3

OVCAR3-R cells = experiment: Viability to CDDP, resistant index; details: versus parental OVCAR3
Description: as §3

IMIM-PC2 cells = experiment: Viability to CDDP
Description: as §3

LoVo cells = experiment: Viability to CDDP
Description: as §3

A2780S cells = experiment: Response to CDDP after overexpression of miR-7 candidate target genes
Method: (§4) cDNA plasmids transfection: a Myc-DDK-tagged ORF clone of MAFG, ELK-1 or ABCA1 and the negative control pCMV6 were used for in transient transfection (OriGene, USA). H23 and A2780 cells were plated onto 60-mm dishes at 6×10^5 cells/dish and transfected with a negative control, MAFG, ELK-1 or ABCA1 vectors (IDs: RC221486; RC208921 and RC221861) using jet-PEI DNA Transfection Reagent (PolyPlus Transfection, USA). For stable overexpression, lentiviruses carrying ELK-1 cDNA (Applied Biological Materials, Canada) were obtained by cotransfecting 15 μg of the specific lentiviral vector (pGIPZ-nonsilencing or pLenti-GIII-CMV-hELK-1-GFP-2A-Puro) and […] of each packaging vector (pCD-NL-BH and pMD2-VSV-G) in 10 million HEK 293T cells using Lipofectamine 2000 (Invitrogen, USA). Supernatants were taken at 48 hours posttransfection. A2780S cells were plated onto 60-mm dishes at 1×10^5 cells/dish and transduced with supernatant carrying nonsilencing or ELK-1 lentivirus, and polybrene was added (5 μg/ml).
(§5) To determine if the expression of the miR-7 candidate target genes was linked to CDDP response, we conducted their in transient overexpression in the sensitive cells comparing their response to CDDP with their parental resistant and sensitive cell lines, both transfected with an empty vector.

H23S cells [3] = experiment: as above
Method: as §4, §5

H23R cells [4] = experiment: ROS production and viability after aptamer transfection and CDDP treatment
Method: FIG. 7: Viability and ROS production assay in H23R cells after apMAFG6F transfection. Each experimental group was exposed for 72 h to 6 different CDDP concentrations, and data were normalized to each untreated control, set to 100%. The data represent the mean±SD of at least 2 independent experiments performed in duplicate at each drug concentration for each cell line analyzed.
as §1, §2

[5] = test system: H23S cells overexpressing MAFG; experiment: CDDP sensitivity of MAFG-overexpressing cells combined with aptamer
Method: HEK293 and H23S/R cells were seeded into 96-well plates then transfected with 5, 12.5, 25, 75 and 100 nM of MAFG aptamers or treated with PBS-Mg using Jet Pei PolyPlus transfection reagent (PolyPlus Transfection, USA). The dose of 25 nM aptamer was afterwards used in combination with increased doses of CDDP to assay viability and ROS production as described above. To confirm the aptamer-transfection efficiency cells were seeded in 24-well plates for aptamer isolation and confirmation of aptamer transfection by quantitative analysis. A Myc-DDK-tagged ORF clone of MAFG the negative control pCMV6 were used for in transient transfection (OriGene, USA) in combination with MAFG-aptamers following the same procedure.

[6] = versus sensitive line with empty vector

IC50 of CDDP (LoVo cells): over 2 μg/ml
Molecule: [NH2][Pt]([NH2])([Cl])[Cl] [CDDP, Cisplatin]
ROS production versus basal untreated cells (H23S cells [1]; 3.00 μg/ml CDDP): 300%
ROS after treatment with the drug (H23S cells [1]; Example 1): increased
Resistant-Index (RI) to CDDP (A2780-R cells): 3.00
Resistant-Index (RI) to CDDP (H23R cells [2]): 3.35 and > 3
Resistant-Index (RI) to CDDP (H460R cells): 2.50
Resistant-Index (RI) to CDDP (OVCAR3-R cells): 2.96
IC50 of CDDP (IMIM-PC2 cells): over 2 μg/ml
response to CDDP after transient ELK-1 overexpression (A2780S cells; 48 h of exposure to the drug): did not change the response to CDDP
sensitivity to CDDP after stable ELK-1 overexpression (A2780S cells; lentiviral transduction): did not change the sensitivity to CDDP
CDDP resistance index after MAFG overexpression (A2780S cells; [6]): 1.6
CDDP RI after ABCA1 overexpression (H23S cells [3]; versus empty vector, not statistically significant (p=0.796)): 1.5
CDDP-RI after MAFG overexpression (H23S cells [3]; [6]): 1.7

B1: GCGGATGAAGACTGGTGTCGATGCATGTGTAGTGCATTTCGAGCCGTTCTATTGGTGTGCCCTAAATACGAGCAAC (nucleic acid)
chain: GCGGATGAAGACTGGTGTCGATGCATGTGTAGTGCATTTCGAGCCGTTCTATTGGTGTGCCCTAAATACGAGCAAC
modifications: chemistry not given here
notes: DNA aptamer selected against the MAFG protein by SELEX
cell viability after aptamer transfection and CDDP (H23R cells [4]; measured in parallel to ROS): decrease of cell viability; also recorded: decrease in cell viability
ROS production after aptamer transfection and CDDP (H23R cells [4]; resistant cells carrying aptamer vs untransfected, p<0.005 at 4 μg/ml CDDP): increase of ROS production; also recorded: linear dose-response relationship
CDDP sensitivity of MAFG-overexpressing cells with aptamer [5]: rescued the phenotype and re-sensitized the cells
